Tests used:
Acetylcholinesterase = Acetylcholinesterase (Homo sapiens, UniProt P22303)
Description: Inhibition of human recombinant AChE using acetylthiocholine as substrate

Cholinesterase = Cholinesterase (Homo sapiens, UniProt P06276)
Description: Inhibition of human recombinant BChE using acetylthiocholine as substrate

Beta-secretase 1 = Beta-secretase 1 (Homo sapiens, UniProt P56817)
Sequence of Beta-secretase 1 (P56817 whole entry): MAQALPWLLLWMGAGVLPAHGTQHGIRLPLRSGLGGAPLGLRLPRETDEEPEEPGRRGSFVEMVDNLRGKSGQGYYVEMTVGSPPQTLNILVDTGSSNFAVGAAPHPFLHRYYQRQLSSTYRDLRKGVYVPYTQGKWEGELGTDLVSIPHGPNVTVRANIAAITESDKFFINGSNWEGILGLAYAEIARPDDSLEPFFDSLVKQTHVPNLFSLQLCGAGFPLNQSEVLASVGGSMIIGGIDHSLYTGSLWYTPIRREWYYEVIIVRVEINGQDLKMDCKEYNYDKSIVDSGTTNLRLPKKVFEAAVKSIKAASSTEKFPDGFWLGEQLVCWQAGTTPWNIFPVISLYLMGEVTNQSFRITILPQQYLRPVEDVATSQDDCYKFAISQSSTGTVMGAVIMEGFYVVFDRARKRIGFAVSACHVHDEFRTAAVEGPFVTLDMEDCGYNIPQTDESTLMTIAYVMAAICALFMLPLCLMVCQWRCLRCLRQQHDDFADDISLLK

Sequence of Acetylcholinesterase (P22303 whole entry): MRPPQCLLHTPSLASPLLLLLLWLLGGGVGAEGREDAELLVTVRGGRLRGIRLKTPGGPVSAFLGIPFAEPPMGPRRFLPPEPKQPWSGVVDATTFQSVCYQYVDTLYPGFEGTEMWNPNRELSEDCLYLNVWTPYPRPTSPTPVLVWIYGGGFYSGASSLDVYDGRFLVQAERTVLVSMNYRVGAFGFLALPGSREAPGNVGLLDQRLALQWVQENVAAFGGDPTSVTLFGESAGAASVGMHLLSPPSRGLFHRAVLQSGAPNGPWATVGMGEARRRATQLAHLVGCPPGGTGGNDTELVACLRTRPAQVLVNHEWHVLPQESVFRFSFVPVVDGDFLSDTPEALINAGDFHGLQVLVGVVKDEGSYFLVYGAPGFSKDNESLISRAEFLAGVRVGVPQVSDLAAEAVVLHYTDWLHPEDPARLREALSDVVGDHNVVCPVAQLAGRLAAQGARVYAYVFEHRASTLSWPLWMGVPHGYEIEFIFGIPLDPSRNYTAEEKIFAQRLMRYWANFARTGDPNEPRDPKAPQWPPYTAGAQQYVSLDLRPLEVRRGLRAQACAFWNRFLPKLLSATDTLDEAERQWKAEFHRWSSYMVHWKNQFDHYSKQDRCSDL
Sequence of Cholinesterase (P06276 whole entry): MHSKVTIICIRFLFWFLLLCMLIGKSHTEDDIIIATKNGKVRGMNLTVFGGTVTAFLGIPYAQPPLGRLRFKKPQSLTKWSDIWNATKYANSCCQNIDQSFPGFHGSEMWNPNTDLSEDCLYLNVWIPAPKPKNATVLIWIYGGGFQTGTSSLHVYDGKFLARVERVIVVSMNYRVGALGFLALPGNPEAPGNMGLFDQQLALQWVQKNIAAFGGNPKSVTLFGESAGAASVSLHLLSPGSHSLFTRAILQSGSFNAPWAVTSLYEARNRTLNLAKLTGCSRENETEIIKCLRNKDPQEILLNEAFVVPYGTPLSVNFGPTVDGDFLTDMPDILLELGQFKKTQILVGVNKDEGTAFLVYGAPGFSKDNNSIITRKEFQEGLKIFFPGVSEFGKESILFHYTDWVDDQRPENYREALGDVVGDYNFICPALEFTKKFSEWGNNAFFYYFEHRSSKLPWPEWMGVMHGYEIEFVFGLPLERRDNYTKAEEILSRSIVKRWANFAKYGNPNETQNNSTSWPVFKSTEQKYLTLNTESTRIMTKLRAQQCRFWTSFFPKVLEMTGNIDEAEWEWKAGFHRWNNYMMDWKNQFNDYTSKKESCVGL

Compound	Ki (Acetylcholinesterase)	Ki (Cholinesterase)	IC50 (Beta-secretase 1)
O=C(NCCc1c[nH]c2ccccc12)c1ccc(OCCCCn2c3ccccc3c3ccccc32)cc1	1440 nM		
O=C(NCCc1c[nH]c2ccccc12)c1ccc(OCCCCn2ccc3ccccc32)cc1	> 10000 nM		
O=C(NCCc1c[nH]c2ccccc12)c1ccc(OCCCCOc2cccc3[nH]c4ccccc4c23)cc1	> 10000 nM		
O=C(NCCc1c[nH]c2ccccc12)c1ccc(OCCCCOc2cccc(C(=O)c3ccccc3)c2)cc1	> 10000 nM		
O=C(NCCc1c[nH]c2ccccc12)c1ccc(OCCCCOc2ccc(C(=O)c3ccccc3)cc2)cc1	> 10000 nM		
O=C(NCCc1c[nH]c2ccccc12)c1ccc(OCCCCOc2ccc3c(c2)C(=O)c2ccccc2-3)cc1	> 10000 nM		
CN(C)c1cc[n+](CCCCOc2ccc(C(=O)NCCc3c[nH]c4ccccc34)cc2)cc1	198 nM	2360 nM	
O=C(NCCc1c[nH]c2ccccc12)c1ccc(OCCCC[n+]2cccc3ccccc32)cc1	124 nM	97 nM	
CC(=O)c1ccccc1NC(=O)c1ccc(OCCCC[n+]2cccc3ccccc32)cc1	53 nM	166 nM	
CC(=O)c1ccccc1NC(=O)c1ccc(OCCCC[n+]2ccc3ccccc3c2)cc1	45.8 nM	56 nM	
CC(=O)c1ccccc1NC(=O)c1ccc(OCCCCC[n+]2ccc3ccccc3c2)cc1	44.7 nM	82 nM	> 100 µM
CC(=O)c1ccccc1NC(=O)c1ccc(OCCCCCC[n+]2ccc3ccccc3c2)cc1	9.4 nM	99 nM	> 100 µM
CC(=O)c1ccccc1NC(=O)c1ccc(OCCCCC[n+]2cccc3ccccc32)cc1	6.47 nM	55 nM	85 µM
CC(=O)c1ccccc1NC(=O)c1ccc(OCCCCC[n+]2ccccc2)cc1	81 nM	93 nM	0.31 µM
CC(=O)c1ccccc1NC(=O)c1ccc(OCCCCCC[n+]2ccccc2)cc1	47 nM	66 nM	
